{"source": "patent US20100260841A1", "about": "“Method of Treating Atherosclerosis, Dyslipidemias and Related Conditions” (priority 2007, published 2010)", "key": {"[1]": {"system": "extended-release niacin (ERN) induced flushing", "conditions": "patients", "procedure": "(§1) Patients (N=412) were randomized to ERN 1 gram (given as Niaspan®, with no prior titration) plus compound E placebo, 18.75, 37.5, 75 or 150 mg, or double placebo for 4 weeks (acute phase) with doubling of the respective doses for the remaining 4 weeks (chronic phase). Patients reported flushing intensity using the validated Global Flushing Severity Score (GFSS); none/mild (0-3), moderate (4-6), severe (7-9) and extreme (10) in a daily eDiary. A subset of patients was randomized to compound E 150 mg versus placebo in a 4-week crossover safety study."}, "[2]": {"conditions": "patients, Compound E alone or coadministered with ERN", "procedure": "as §1"}, "[3]": {"system": "lipid altering effects of ERN", "conditions": "patients, Compound E 150 mg with ERN"}}, "data": [{"molecule": "CS(=O)(=O)c1cc(F)cc2c3c(n(Cc4ccc(Cl)cc4)c12)[C@@H](CC(=O)O)CC3", "note": "[Compound E]", "values": [{"measurement": "acute phase flushing intensity compared to ERN alone", "setting": "[1]; Compound E plus ERN 1 gram, first 4 weeks, GFSS, dose-response p<0.001", "value": "significantly lower"}, {"measurement": "chronic phase flushing intensity compared to ERN alone", "setting": "[1]; Compound E plus ERN, doubled doses, remaining 4 weeks, GFSS, dose-response p=0.021", "value": "significantly lower"}, {"measurement": "tolerability and achievement of optimal therapeutic dosing of niacin", "setting": "[1]; Compound E with ERN treatment", "value": "significantly improved"}, {"measurement": "flushing intensity versus ERN alone at each coadministered dose", "setting": "[1]; each coadministered dose of Compound E (18.75, 37.5, 75 or 150 mg), p<0.05", "value": "significantly (p<0.05) lower flushing intensity"}, {"measurement": "incidence of adverse experiences", "setting": "[2]", "value": "low incidence"}, {"measurement": "impact on the lipid altering effects of ERN", "setting": "[3]", "value": "did not significantly impact"}]}]}
